Test results: the pKa sets of Baltruschat and Czodrowski (2020)

Row | Compound | pKa (basic group) | pKa (acidic group)
1 | Cc1ccc2c(c1)CC(=O)CC2 | 12.9 | 
2 | N=C(N)N(c1ccccc1)c1ccccc1 | 10.4 | 
3 | Oc1cc[n+](OCc2ccccc2)cc1 |  | 2.58
4 | Nc1ccc(I)cc1 | 3.79 | 
5 | Nc1ncnc2c1cnn2-c1ccccc1 | 3.89 | 
6 | CC1(C)NC(=S)NC1=S |  | 7.65
7 | Cc1ccc(O)cc1Cc1cc([N+](=O)[O-])ccc1O |  | 7.03
8 | O/C(=C/c1cccnc1)c1ccccc1 | 5.84 | 8.79
9 | Cc1cc[nH+]c([O-])n1 | 3.15 | 
10 | C=CC1CN2CCC1C[C@H]2C(=O)[O-] (some centres not stated) | 10.6 | 
11 | CSc1ccc(N)cc1Cl | 3.38 | 
12 | Cc1ccc(Br)cc1C(=O)O |  | 3.58
13 | c1nc2cc3c(cc2[nH]1)CCCC3 | 5.98 | 13.3
14 | Nc1ccc(Br)cc1 | 3.79 | 
15 | CC(=O)/C(CN1CCOCC1)=N\O | 6.1 | 9.15
16 | CC(C)(C)[NH2+]CC(=O)c1ccc(O)cc1 |  | 7.9
17 | C#CCCCCCCN | 10.7 | 
18 | Nc1cccc2cc3ccccc3nc12 | 4.4 | 
19 | NNCCCc1ccccc1 | 7.2 | 
20 | [O-]c1[nH+]c(O)c(Br)c[n+]1[C@H]1O[C@@H](CO)[C@H](O)[C@@H]1O |  | -0.9
21 | Cc1cccc(N)c1 | 4.7 | 
22 | Cc1cc(C)c(O)c(C)c1 |  | 10.9
23 | COc1ccc(-c2cnc(-c3ccc(N)cc3)o2)cc1 | 3.22 | 
24 | OCCN(CCO)CCc1nnn[nH]1 | 9.2 | 

Row | Compound | pKa (basic group) | pKa (acidic group)
25 | CCSC(=O)c1cccc(C)c1 | -4.77 | 
26 | CN(C)c1ccc(/C=N/c2ncc3nc[nH]c3n2)cc1 | 5.26 | 
27 | CCOC(=O)C(C)N (configuration not stated) | 7.8 | 
28 | C[NH+](C)C[C@H]1[C@@H]2CC[C@@](C)([C@H]1N)C2(C)C | 6.59 | 
29 | CSc1nc(C)cc(=O)n1C | 0.9 | 
30 | CCN(CC)CC(O)CO (configuration not stated) | 9.77 | 
31 | CC/C=C/Cc1nccn1[C@H](C(=O)[O-])C(C)(C)S | 7.2 | 10.4
32 | Cc1ccccc1/C(=N\CCCN(C)C)c1ccccc1Cl | 8.95 | 
33 | O=C([O-])[C@@H](NCC[NH2+][C@@H](C(=O)[O-])c1ccccc1O)c1ccccc1O | 6.36 | 8.76
34 | C=C(C)C(=O)OCCNC(C)C | 9.13 | 
35 | C#CCCN(C)C | 8.33 | 
36 | Cc1ccc(C(=O)O)c(O)c1 |  | 3.11
37 | CN(C)CCC(c1ccccc1)c1ccccn1 (configuration not stated) | 9.29 | 
38 | CCCNCC[NH2+]CCC | 7.53 | 
39 | CCOC(=O)C(N)CC (configuration not stated) | 7.71 | 
40 | C=CCc1c(O)n[nH]c1C | 2.8 | 
41 | CCCS |  | 10.6
42 | CN(C)c1cccc2c(S(=O)(=O)NCC[NH+](C)C)cccc12 | 3.57 | 8.33
43 | CCCc1c(C)[nH]n(C2CC[NH+](C)CC2)c1=O |  | 7.18
44 | Nc1ccc(Cl)cn1 | 4.83 | 
45 | Nc1cc(/C=C/c2ccccc2)nc(/C=C/c2ccccc2)c1 | 8.6 | 
46 | Cn1c(=O)c2[nH]cnc2n(C)c1=O | 8.64 | 
47 | N#CC(CCN1CCCCC1)(c1ccccc1)c1ccccc1 | 8.07 | 
48 | C=CCOc1nc(N)nc(N)n1 | 3.43 | 

Row | Compound | pKa (basic group) | pKa (acidic group)
49 | CC(C)[NH+]1CCC(NN)CC1 | 5.75 | 
50 | O=C(CCCN1CCC(O)(c2ccccc2)CC1)c1ccccc1 | 8.4 | 
51 | c1cnc2ccc3ncccc3c2c1 | 4 | 
52 | C[NH+]1CCN(C(c2ccccc2)c2ccc(Cl)cc2)CC1 (configuration not stated) | 2.43 | 
53 | CC(=O)C(C)C(=O)c1ccccc1 (configuration not stated) |  | 11.1
54 | CNCCC[NH2+]C | 8.68 | 
55 | CCCCCCCN(CCCCCCC)c1ccccc1 | 3.33 | 
56 | O=C([O-])c1cccc([N+](=O)[O-])c1O |  | 10.3
57 | C[NH+](C)CCC/N=C(\c1ccccc1)c1ccccc1-c1ccccc1 | 4.43 | 
58 | Nc1ccc2c(Cl)c3ccccc3nc2c1 | 6.74 | 
59 | CCc1ccnc2c1ccc1c(CC)ccnc12 | 5.6 | 
60 | O=C(O)[C@@H]1CC[C@@H](C(=O)O)S1 |  | 3.3
61 | Clc1ccccc1-c1nnn[nH]1 |  | 3.69
62 | [NH3+]Cc1cccnc1 | 3.71 | 
63 | CN(CCO)c1ccccc1 | 4.89 | 
64 | O=C1COC(=O)C1I (configuration not stated) |  | 2.31
65 | Cc1ncc(CO)c(C[NH3+])c1O | 3.38 | 8.02
66 | CC(C)NC(=S)S |  | 3.1
67 | Oc1ccc(/N=N/c2nc3ccccc3s2)c2cccnc12 |  | 7.2
68 | COc1ccccc1C(=N)c1ccccc1 | 7.29 | 
69 | Cc1ccc2c(c1)N1CCN2CC1 | 5.83 | 
70 | C1CC2CC1NN2 | 7.94 | 
71 | Brc1cc2cccnc2c2ncccc12 | 4.2 | 
72 | Cc1cc(NN)nc2ccccc12 | 8.35 | 

Row | Compound | pKa (basic group) | pKa (acidic group)
73 | C=CC(=O)OCCN(CC)CC | 8.55 | 
74 | N#Cc1ccc(NS(=O)(=O)c2ccccc2)cc1 |  | 6.78
75 | CC(N)C(=O)[O-] (configuration not stated) | 9.83 | 
76 | SCCNCCc1ccccc1 | 8.11 | 
77 | [NH3+]CCc1cccnc1 | 4.64 | 
78 | O=C([O-])Cc1nc2ccccc2[nH]1 | 4.1 | 
79 | Nc1ccc(S(=O)(=O)Nc2cccnn2)cc1 | 1.3 | 7.06
80 | CC1CCN(C(C)C=C(c2cccs2)c2cccs2)CC1 (configuration not stated) | 8.2 | 
81 | COc1ccc(NC(=S)c2cccc(Br)c2)cc1 |  | 11
82 | Cc1cccc(C(=O)O)c1Cl |  | 3
83 | Cc1cccc(/C=C/C(=O)O)c1 |  | 4.44
84 | Nc1cccc2nn([C@@H]3C[C@@H](O)[C@H](CO)O3)nc12 | 2.4 | 
85 | CCCCN1CCCC1 | 10.4 | 
86 | Cc1c[nH]cc1C(=O)O |  | 5.65
87 | O=C1Oc2ccccc2C(=O)C1CC1C(=O)Oc2ccccc2C1=O (configuration not stated) |  | 5.5
88 | Nc1ccc2c(c1)Cc1cccc(O)c1-2 | 4.73 | 
89 | C=C(C)[C@H]1CN[C@H](C(=O)[O-])[C@H]1CC(N)=O | 9.47 | 
90 | CCCCCc1cccnn1 | 3.7 | 
91 | CC1(C)SC(=O)NC1=O |  | 6.64
92 | CNCCNC | 10.1 | 
93 | C/C(O)=C/C(=O)[O-] |  | 13.2
94 | C=C=CC(=O)O |  | 3.96
95 | S=C(Nc1ccc(Cl)c(Cl)c1)c1ccc(Cl)cc1 |  | 9.51
96 | Cc1cccc([N+](=O)[O-])c1C(=O)O |  | 2.13

Row | Compound | pKa (basic group) | pKa (acidic group)
97 | CCC(=O)C(CC(C)N1CCCCC1)(c1ccccc1)c1ccccc1 (configuration not stated) | 8.58 | 
98 | CCOc1ccc2nc(/C=C/C=C/c3ccccc3)cc(N)c2c1 | 9.5 | 
99 | CC1CCN(O)C1(C)C (configuration not stated) | 5.9 | 
100 | N=C(c1ccccc1)c1ccccc1O | 5 | 
101 | N/N=C(\N)c1ncnc2nc[nH]c12 |  | 10
102 | Clc1ccc(-c2ccc(Cl)cn2)nc1 | 3.96 | 
103 | C[NH+](C)CCCN=C(c1ccccc1)c1ccccc1 | 5.2 | 
104 | NS(=O)(=O)c1nnc(Nc2ccccc2)s1 |  | 7.7
105 | CCOCCNc1ccc(OC)cc1 | 4.99 | 
106 | CCC(O)CN(CC(O)CC)C(C)(C)C (configuration not stated) | 9.6 | 
107 | Cc1csc(-c2cccc(NS(=O)(=O)c3ccc(N)cc3)c2)n1 |  | 9.2
108 | Clc1cncc(Cl)c1 | 0.55 | 
109 | Nc1nc2ccccc2o1 | 3.73 | 
110 | CN(C)c1ccc([N+](C)(C)C)cc1 | 2.64 | 
111 | Nc1nc(C(F)(F)F)c2[nH]cnc2n1 | 1.85 | 8.87
112 | CC(=O)NC(Cc1c[nH]cn1)C(=O)[O-] (configuration not stated) | 7.11 | 
113 | Cc1nn(-c2ccccc2)c(O)c1-c1ccccc1 |  | 11.9
114 | Nc1nc(NCCO)nc(NCCO)n1 | 5.18 | 
115 | N#CC(Cc1ccccc1)C(=O)O (configuration not stated) |  | 2.24
116 | Nc1cc(Cl)cc(C[NH3+])c1 | 3.54 | 
117 | CN(C)CCc1nnn[n-]1 | 9.39 | 
118 | [O-]c1ccc(O)n[nH+]1 |  | 5.73
119 | O=C(O)Cc1nnnn1-c1ccccc1 |  | 3.1
120 | CC1(C)C(=O)CC(=O)CC1=O |  | 4.2

Row | Compound | pKa (basic group) | pKa (acidic group)
121 | O=C([O-])C1CCNC1 (configuration not stated) | 10.7 | 
122 | O=C([O-])c1cccnc1 | 4.83 | 
123 | Cc1ccccc1/C(=N/CCCN(C)C)c1ccc2ccccc2c1 | 8.9 | 
124 | CCCCN1CCCCC1 | 10.5 | 
125 | CN(C)CCC[NH+](C)C | 7.73 | 
126 | CNCC[S-] | 10.8 | 
127 | Oc1nc(C(F)(F)F)nc2[nH+]c[nH]c12 |  | 1.1
128 | O=C1NS(=O)(=O)c2ccccc21 |  | 1.76
129 | O=C(CCl)Nc1nnc(-c2ccccc2)s1 |  | 6.9
130 | c1cncc(-c2ccncc2)c1 | 4.85 | 
131 | Cc1cc2ncn([C@H]3OC[C@H](O)[C@H](O)[C@@H]3O)c2cc1C | 4.7 | 
132 | COc1cccc(O)c1 |  | 9.51
133 | CCCC(C(CC)CO)C(CC)C(=O)O (configuration not stated) |  | 4.78
134 | CCN(CC)S(=O)(=O)c1ccc(N)cc1 | 1.75 | 
135 | CN(C)CCC#N | 7.01 | 
136 | O=C1COC(=O)N1 |  | 5.84
137 | Cc1ccccc1/C(=N\CCC[NH+](C)C)c1ccccc1-c1ccccc1 | 4.67 | 
138 | Cc1ccc2cccc(O)c2n1 | 5.63 | 10.1
139 | CCCc1ccccn1 | 5.97 | 
140 | CC(C)C[NH2+]CC(=O)O |  | 2.35
141 | Nc1ccnc2cc(Cl)ccc12 | 8.22 | 
142 | N=C(c1ccccc1)c1ccccc1 | 6.82 | 
143 | C[NH2+]C(C)(C)C(=O)O |  | 2.2
144 | O=C([O-])c1ccccc1-n1nc(O)cc1-c1ccccc1 |  | 12.5

Row | Compound | pKa (basic group) | pKa (acidic group)
145 | COc1cc(C(N)=O)ccc1-c1nc2nn(C)cc2[nH]1 | 3.98 | 12.3
146 | Oc1cccc2ccncc12 | 5.66 | 8.4
147 | C[S+](C)CC(=O)c1ccc([N+](=O)[O-])cc1 |  | 6.7
148 | Cc1cc(O)cc(C)c1C#N |  | 8.21
149 | CCN(CC)CCS(=O)(=O)c1ccc(OC)c(OC)c1OC | 7.41 | 
150 | O=C(O)c1ccc(CO)cc1 |  | 4.18
151 | Cc1nn(-c2ccccc2)c(O)c1C |  | 11.3
152 | O=C([O-])C1CCCCN1 (configuration not stated) | 10.6 | 
153 | CC(C)CNC(C)C | 10.6 | 
154 | CCC(C)NC(C#N)=C(C#N)C#N (configuration not stated) |  | 6.35
155 | CCC(CO)NCl (configuration not stated) | 1.55 | 
156 | CC(=O)N1CCNCC1 | 7.94 | 
157 | S=CNc1cccc(Cl)c1 |  | 10.8
158 | Cc1cc(C#N)cc[n+]1O |  | -0.67
159 | Cc1cccc(C)c1Oc1ccccn1 | 2.26 | 
160 | Nc1ncnc2scnc12 | 2.77 | 
161 | COc1ccccc1-c1nnn[nH]1 |  | 4.8
162 | O=P([O-])(O)C([NH2+]Cc1ccncc1)c1ccccc1O (configuration not stated) | 3.15 | 5.2
163 | Nc1c([N+](=O)[O-])ccc2ccccc12 | -1.6 | 
164 | CCN(C)N(C)CC | 6.8 | 
165 | c1ccc(Oc2ccccn2)cc1 | 2.35 | 
166 | O=C(O)c1ccco1 | -0.53 | 3.18
167 | CNCCCN | 10.7 | 
168 | OCCCc1ccccn1 | 5.71 | 
